Test results published in paper PMC11318023, “Discovery of VU6008677: A Structurally Distinct Tricyclic M4 Positive Allosteric Modulator with Improved CYP450 Profile” (ACS Medicinal Chemistry Letters, 2024).

Columns and labels:
human M4 (hM4) = target: T1, human M4 (hM4) (Homo sapiens, UniProt P08173); assay: Calcium mobilization assay, hM4/Gqi5-CHO cells, with EC20 acetylcholine (PAM); conditions: for hM4 pEC50 / hM4 %ACh Max / EC50: hM4/Gqi5-CHO cells, calcium mobilization; for hM4 pEC50 / hM4 %ACh Max: EC20 acetylcholine; for hM4 %ACh Max: maximum response; for EC50: read-out: hM4 EC50, EC20 fixed concentration of acetylcholine
T1 sequence (P08173 1-479): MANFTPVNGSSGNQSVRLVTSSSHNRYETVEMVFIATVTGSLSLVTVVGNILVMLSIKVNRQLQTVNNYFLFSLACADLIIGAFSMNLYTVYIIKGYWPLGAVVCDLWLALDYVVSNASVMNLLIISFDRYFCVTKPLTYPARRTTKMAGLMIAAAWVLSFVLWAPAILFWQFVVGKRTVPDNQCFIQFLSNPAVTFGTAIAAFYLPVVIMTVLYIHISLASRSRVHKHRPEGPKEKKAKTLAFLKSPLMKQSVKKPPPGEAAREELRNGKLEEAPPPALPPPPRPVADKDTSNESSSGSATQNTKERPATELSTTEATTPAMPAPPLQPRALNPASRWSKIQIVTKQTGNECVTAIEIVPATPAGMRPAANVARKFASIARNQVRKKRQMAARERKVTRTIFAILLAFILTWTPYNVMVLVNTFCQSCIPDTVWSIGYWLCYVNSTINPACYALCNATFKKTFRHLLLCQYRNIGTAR

[1] = Binding in plasma from human, equilibrium dialysis; assay type: in vitro ADME; conditions: human, plasma, read-out: human fu,plasma
[2] = Binding in plasma from rat, equilibrium dialysis; assay type: in vitro ADME; conditions: read-out: rat fu,plasma
CYP 1A2 = target: T2, CYP 1A2 (Homo sapiens, UniProt P05177); assay: CYP450 inhibition in pooled human liver microsomes, CYP-specific probe substrates; assay type: in vitro ADME; conditions: for IC50: pooled HLM, NADPH, CYP-specific probe substrate
T2 sequence (P05177 1-516): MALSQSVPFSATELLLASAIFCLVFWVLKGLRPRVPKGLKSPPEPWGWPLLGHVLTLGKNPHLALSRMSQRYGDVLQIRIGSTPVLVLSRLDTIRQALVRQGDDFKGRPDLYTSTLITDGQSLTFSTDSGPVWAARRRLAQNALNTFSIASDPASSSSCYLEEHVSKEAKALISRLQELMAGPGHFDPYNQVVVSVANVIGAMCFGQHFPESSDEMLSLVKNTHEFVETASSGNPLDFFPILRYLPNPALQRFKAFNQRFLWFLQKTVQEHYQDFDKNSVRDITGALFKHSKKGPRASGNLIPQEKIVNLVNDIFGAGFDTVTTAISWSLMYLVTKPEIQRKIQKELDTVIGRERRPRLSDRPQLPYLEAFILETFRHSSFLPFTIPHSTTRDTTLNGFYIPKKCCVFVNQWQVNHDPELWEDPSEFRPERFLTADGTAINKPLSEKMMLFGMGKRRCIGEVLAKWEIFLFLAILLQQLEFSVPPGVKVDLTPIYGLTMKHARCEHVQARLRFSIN

[3] = Intrinsic clearance in human liver microsomes (substrate depletion), predicted hepatic clearance; assay type: in vitro ADME; conditions: for CLint scaled at 1 µM: pH 7.4, human liver microsomes; for CLhep, human (predicted hepatic clearance): predicted from human microsomal CLint
CYP 2D6 = CYP 2D6 (Homo sapiens, UniProt P10635); assay: CYP450 inhibition in pooled human liver microsomes, CYP-specific probe substrates; assay type: in vitro ADME; conditions: pooled HLM, NADPH, CYP-specific probe substrate
CYP 2D6, sequence (P10635 whole entry): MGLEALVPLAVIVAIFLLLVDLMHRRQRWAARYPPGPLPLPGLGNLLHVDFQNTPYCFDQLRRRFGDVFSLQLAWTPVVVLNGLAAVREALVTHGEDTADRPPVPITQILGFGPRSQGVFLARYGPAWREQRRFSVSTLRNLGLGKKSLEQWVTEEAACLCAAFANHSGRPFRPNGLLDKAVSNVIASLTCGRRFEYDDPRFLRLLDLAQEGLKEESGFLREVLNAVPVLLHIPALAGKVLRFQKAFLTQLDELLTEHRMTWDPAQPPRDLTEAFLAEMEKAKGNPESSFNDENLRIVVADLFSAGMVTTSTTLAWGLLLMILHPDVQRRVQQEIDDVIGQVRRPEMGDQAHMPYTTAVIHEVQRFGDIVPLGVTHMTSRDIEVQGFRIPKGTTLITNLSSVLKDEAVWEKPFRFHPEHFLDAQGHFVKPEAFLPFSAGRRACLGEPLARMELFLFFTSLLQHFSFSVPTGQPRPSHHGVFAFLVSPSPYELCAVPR

[4] = Intrinsic clearance in rat liver microsomes (substrate depletion), predicted hepatic clearance; assay type: in vitro ADME; conditions: for CLint scaled at 1 µM: pH 7.4, rat liver microsomes; for CLhep, rat (predicted hepatic clearance): predicted from rat microsomal CLint
human M2 (hM2) = target: T3, human M2 (hM2) (Homo sapiens, UniProt P08172); assay: Calcium mobilization assay, hM2/Gqi5-CHO cells, with EC20 acetylcholine; assay type: cell-based
T3 construct: expressed in transfected cells
T3 sequence (P08172 1-466): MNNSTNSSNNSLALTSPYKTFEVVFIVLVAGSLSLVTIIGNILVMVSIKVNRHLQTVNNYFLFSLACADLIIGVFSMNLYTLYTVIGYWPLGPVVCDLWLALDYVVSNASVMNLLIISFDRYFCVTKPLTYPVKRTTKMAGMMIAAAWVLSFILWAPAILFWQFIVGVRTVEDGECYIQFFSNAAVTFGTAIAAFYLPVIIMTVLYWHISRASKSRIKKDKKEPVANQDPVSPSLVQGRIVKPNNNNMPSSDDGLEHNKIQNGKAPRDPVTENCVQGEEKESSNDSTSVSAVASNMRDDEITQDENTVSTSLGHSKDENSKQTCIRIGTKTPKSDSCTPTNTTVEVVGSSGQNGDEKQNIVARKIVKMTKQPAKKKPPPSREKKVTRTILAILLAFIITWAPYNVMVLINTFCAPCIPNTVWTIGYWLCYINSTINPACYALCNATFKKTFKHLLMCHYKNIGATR
Source text: buffer remained in the cell plates. […] After establishment of a […]

[5] = Binding in brain homogenate from rat, equilibrium dialysis; assay type: in vitro ADME; conditions: rat brain homogenates; for fraction unbound at 6 h, 1 µM: rat, brain homogenate, read-out: rat fu,brain
CYP 3A4 = CYP 3A4 (Homo sapiens, UniProt P08684); assay: CYP450 inhibition in pooled human liver microsomes, CYP-specific probe substrates; assay type: in vitro ADME; conditions: pooled HLM, NADPH, CYP-specific probe substrate
CYP 3A4, sequence (P08684 whole entry): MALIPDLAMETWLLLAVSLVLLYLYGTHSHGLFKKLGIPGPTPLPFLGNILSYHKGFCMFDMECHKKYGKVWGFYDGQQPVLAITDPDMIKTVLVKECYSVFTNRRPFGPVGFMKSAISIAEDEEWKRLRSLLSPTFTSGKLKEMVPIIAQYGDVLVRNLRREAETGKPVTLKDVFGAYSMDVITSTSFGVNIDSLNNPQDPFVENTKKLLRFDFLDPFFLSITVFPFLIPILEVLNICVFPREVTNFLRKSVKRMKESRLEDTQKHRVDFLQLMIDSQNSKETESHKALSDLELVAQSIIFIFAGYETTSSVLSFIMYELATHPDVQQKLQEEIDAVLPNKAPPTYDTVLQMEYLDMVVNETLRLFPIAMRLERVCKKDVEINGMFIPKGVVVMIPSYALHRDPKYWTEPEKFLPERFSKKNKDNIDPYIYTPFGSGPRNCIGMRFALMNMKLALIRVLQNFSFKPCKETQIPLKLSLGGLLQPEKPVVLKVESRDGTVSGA

CYP 2C9 = CYP 2C9 (Homo sapiens, UniProt P11712); assay: as above; assay type: in vitro ADME; conditions: pooled HLM, NADPH, CYP-specific probe substrate
CYP 2C9, sequence (P11712 whole entry): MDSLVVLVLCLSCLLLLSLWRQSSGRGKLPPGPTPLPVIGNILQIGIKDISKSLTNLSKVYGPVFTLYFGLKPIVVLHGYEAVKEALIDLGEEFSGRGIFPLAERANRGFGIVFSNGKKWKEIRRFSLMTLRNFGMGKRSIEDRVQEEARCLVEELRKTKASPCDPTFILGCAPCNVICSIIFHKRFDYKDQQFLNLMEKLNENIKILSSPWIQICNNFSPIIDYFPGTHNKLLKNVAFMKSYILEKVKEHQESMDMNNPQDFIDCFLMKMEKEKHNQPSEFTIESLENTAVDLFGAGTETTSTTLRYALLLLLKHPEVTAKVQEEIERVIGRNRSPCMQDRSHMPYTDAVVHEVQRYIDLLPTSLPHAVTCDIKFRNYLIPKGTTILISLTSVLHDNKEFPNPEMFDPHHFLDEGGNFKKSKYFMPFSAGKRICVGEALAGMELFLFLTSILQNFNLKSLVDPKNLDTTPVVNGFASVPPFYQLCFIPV

Row | SMILES | hM4 pEC50 (human M4 (hM4)) | fold loss (decrease) in hM4 potency (human M4 (hM4); relative to the comparator analogue (13g, 13k vs 13l; 22f vs 22j)) [fold] | hM4 %ACh Max (human M4 (hM4)) [%] | EC50 (human M4 (hM4)) [µM] | fraction unbound at 6 h, 5 µM [1] | fraction unbound at 6 h, 5 µM [2] | IC50 (CYP 1A2) [µM] | fold improvement of CYP 1A2 inhibition compared with ML253 (CYP 1A2; vs ML253) [fold] | CLint scaled at 1 µM [3] [mL/min/kg] | CLhep, human (predicted hepatic clearance) [3] [mL/min/kg] | IC50 (CYP 2D6) [µM] | CLint scaled at 1 µM [4] [mL/min/kg] | CLhep, rat (predicted hepatic clearance) [4] [mL/min/kg] | hM2 EC50 (human M2 (hM2)) | fraction unbound at 6 h, 1 µM [5] | IC50 (CYP 3A4) [µM] | IC50 (CYP 2C9) [µM] | EC50 (human M2 (hM2)) [µM] | hM2 % ACh Max (human M2 (hM2)) [%] | rat fu,brain ([5]; fraction unbound)
1 | Cc1nc2sc3c(NCC4CCC4)nncc3c2c(C)c1Cl.Cl [Compound 22f] | 6.40 | ~5 | – | – | – | – | – | – | – | – | – | – | – | – | – | – | – | – | – | –
2 | COc1ccc(CNc2ncnc3c2oc2nc(C)c(Cl)c(C)c23)cc1F.Cl [Compound 14a] | <5.00 | – | 49 | > 10 | – | – | – | – | – | – | – | – | – | – | – | – | – | – | – | –
3 | Cc1nc2sc3c(NCc4ccc(OC(F)F)cc4)nncc3c2c(C)c1Cl [Compound 22e] | 6.27 | – | 41 | – | – | – | – | – | – | – | – | – | – | – | – | – | – | – | – | –
4 | Cc1c(Cl)cnc2sc3c(N4CC(C#N)C4)ncnc3c12 [Compound 15f] | – | – | – | – | 0.02 | 0.171 | 0.36 | 3 | 224 | 19 | > 30 | 642 | 63 | inactive | 0.002 | > 30 | > 30 | – | – | –
5 | Cc1nc2oc3c(NCc4ccc(C(C)(C)O)cc4)ncnc3c2c(C)c1Cl [Compound 14c] | 5.93 | – | 62 | 1.2 | – | – | – | – | – | – | – | – | – | – | – | – | – | – | – | –
6 | Cc1c(Cl)cnc2sc3c(NC4CC(c5ccncc5)C4)ncnc3c12 (stereo not shown) [Compound 15e] | 7.09 | – | 65 | 0.081 | ≤ 0.01 | ≤ 0.01 | 1.5 | – | 79 | 17 | 0.33 | 316 | 57 | inactive | – | > 30 | 9.1 | – | – | –
7 | Cc1c(Cl)cnc2sc3c(NC4(C)CC4)ncnc3c12 [Compound 15b] | 6.39 | – | 51 | 0.4 | – | – | – | – | – | – | – | – | – | – | – | – | – | – | – | –
8 | Cc1nc2sc3c(NC4CC4)ncnc3c2c(C)c1Cl.Cl [Compound 13l] | – | – | – | – | – | ≤ 0.01 | < 0.1 | – | 78 | 17 | > 30 | 423 | 60 | – | 0.001 to 0.005 | 15.8 | > 15.8 | 5 | 49 | 0.001
9 | Cc1nc2oc3c(NC4CC4(C)C)ncnc3c2c(C)c1Cl.Cl (stereo not shown) [Compound 14p] | – | – | – | – | 0.004 | 0.038 | 0.32 | – | 168 | 19 | > 30 | 467 | 61 | – | 0.002 | > 30 | > 30 | 2.3 | 39 | –
10 | COCCCNc1nncc2c1sc1nc(C)c(Cl)c(C)c12.Cl [Compound 22g] | 6.72 | – | 67 | 0.19 | – | – | – | – | – | – | – | – | – | – | – | – | – | – | – | –
11 | Cc1nc2sc3c(NC4CCC4)nncc3c2c(C)c1Cl.Cl [Compound 22j] | – | – | – | – | 0.005 | 0.026 | 0.52 | – | 49 | 15 | 19.2 | 1280 | 66 | – | 0.006 | > 30 | > 30 | > 10 | 44 | –
